The record followed here is patent US7932270B2 (Cytokinetics, Inc., priority 2006, dated 2011).

T1 sequence (P02607 2-151): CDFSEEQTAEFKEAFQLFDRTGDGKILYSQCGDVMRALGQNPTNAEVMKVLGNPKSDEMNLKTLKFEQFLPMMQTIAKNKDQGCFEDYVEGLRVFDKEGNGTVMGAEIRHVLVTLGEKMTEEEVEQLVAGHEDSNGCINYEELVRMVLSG
T1 sequence (P10587 84-789): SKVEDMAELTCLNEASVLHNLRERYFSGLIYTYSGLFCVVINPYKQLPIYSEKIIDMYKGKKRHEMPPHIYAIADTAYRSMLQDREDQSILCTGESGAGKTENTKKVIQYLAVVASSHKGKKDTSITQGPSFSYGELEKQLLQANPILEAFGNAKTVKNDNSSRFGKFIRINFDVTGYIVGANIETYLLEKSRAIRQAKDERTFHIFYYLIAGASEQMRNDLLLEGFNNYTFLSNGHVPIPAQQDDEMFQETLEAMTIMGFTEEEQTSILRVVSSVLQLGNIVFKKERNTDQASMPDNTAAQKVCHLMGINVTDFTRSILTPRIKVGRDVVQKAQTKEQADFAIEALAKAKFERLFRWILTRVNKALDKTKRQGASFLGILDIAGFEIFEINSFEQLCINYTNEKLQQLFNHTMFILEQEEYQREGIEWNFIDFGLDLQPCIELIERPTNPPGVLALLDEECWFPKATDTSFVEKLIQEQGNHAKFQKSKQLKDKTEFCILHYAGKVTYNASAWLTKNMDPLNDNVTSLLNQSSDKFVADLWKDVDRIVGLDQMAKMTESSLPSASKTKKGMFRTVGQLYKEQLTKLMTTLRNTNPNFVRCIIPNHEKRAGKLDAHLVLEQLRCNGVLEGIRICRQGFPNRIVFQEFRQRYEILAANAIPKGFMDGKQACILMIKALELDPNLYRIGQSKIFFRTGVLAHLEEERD

The assay has as its target T1, chicken gizzard smooth muscle myosin subfragment-1 chemically crosslinked to cardiac or skeletal actin (Gallus gallus, UniProt P10587).
T1 construct: chicken gizzard smooth muscle myosin subfragment-1; from tissue; host or cells: chicken gizzard
Nature of the assay: Smooth muscle myosin ATPase dose response assay (pyruvate kinase/horseradish peroxidase/pyruvate oxidase-coupled, amplex red fluorescence). It is filed as biochemical. The following applies: read-out: IC50 Arithmetic Mean. In outline: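 ATPase monitored by amplex red fluorescence (ex 480/em 615 nm) via pyruvate oxidase/HRP coupling, pH 7.00, ATP 0.15 mM. Enzyme: smooth muscle S1-actin crosslinked conjugate, amount set empirically by titration. Dose-response fitted with 4-parameter Hill equation for IC50.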
As for `COC(=O)CNC[C@H](N)CNC(=O)c1ccc(-c2cnn(C)c2)nc1NCCc1cccc(F)c1` [methyl 2-({(2S)-2-amino-3-[(2-{[2-(3-fluorophenyl)ethyl]amino}-6-(1-methylpyrazol-4-yl)(3-pyridyl))carbonylamino]propyl}amino)acetate], the IC50 came to 10900 nM.
To `O=C(NCc1cccnc1)c1ccc(-c2ccccc2)nc1NCCc1cccs1` [{6-phenyl-2-[(2-(2-thienyl)ethyl)amino](3-pyridyl)}-N-(3-pyridylmethyl)carboxamide] belongs 149 nM; to `N#Cc1ccccc1-c1ccc(C(=O)NC[C@@H]2CN(CCCN)CC(=O)N2)c(NCCc2cccc(F)c2)n1` [N-{[(2R)-4-(3-aminopropyl)-6-oxopiperazin-2-yl]methyl}(6-(2-cyanophenyl)-2-{[2-(3-fluorophenyl)ethyl]amino}(3-pyridyl))carboxamide], 4520 nM.
`CC(C)(C)OC(=O)NCCN1CCC[C@H](NC(=O)c2ccc(-c3ccccc3C#N)nc2NCCc2cccc(F)c2)C1=O` (stereo in doubt) [N-(1-{2-[(tert-butoxy)carbonylamino]ethyl}-2-oxo(3-piperidyl))(6-(2-cyanophenyl)-2-{[2-(3-fluorophenyl)ethyl]amino}(3-pyridyl))carboxamide]: the IC50 turned out to be 15300 nM.
The figure for `N#Cc1ccccc1-c1ccc(C(=O)NC[C@H]2CCCN2C(=O)[C@@H](N)CCCN)c(NCCc2cccc(F)c2)n1` [N-{[(2R)-1-((2S)-2,5-diaminopentanoyl)pyrrolidin-2-yl]methyl}(6-(2-cyanophenyl)-2-{[2-(3-fluorophenyl)ethyl]amino}(3-pyridyl))carboxamide] is 52 nM; for `CC(=O)N1CCC[C@H]1CNC(=O)c1ccc(-c2ccccc2)nc1NCCc1ccccn1` [N-[((2S)-1-acetylpyrrolidin-2-yl)methyl]{6-phenyl-2-[(2-(2-pyridyl)ethyl)amino](3-pyridyl)}carboxamide] it is 15700 nM; for `Cn1cc(-c2ccc(C(=O)NCc3cc[nH]n3)c(NCCc3cccc(F)c3)n2)cn1` [(2-{[2-(3-fluorophenyl)ethyl]amino}-6-(1-methylpyrazol-4-yl)(3-pyridyl))-N-(pyrazol-3-ylmethyl)carboxamide] it is 31 nM.
To `CC(C)(C)OC(=O)NCC(=O)N1CC[C@@H]1CNC(=O)c1ccc(-c2cn[nH]c2)nc1NCCc1cccc(F)c1` [N-[((2R)-1-{2-[(tert-butoxy)carbonylamino]acetyl}azetidin-2-yl)methyl](2-{[2-(3-fluorophenyl)ethyl]amino}-6-pyrazol-4-yl(3-pyridyl))carboxamide] belongs 2990 nM; to `C[C@@H](CNC(=O)CNC(=O)OC(C)(C)C)CNC(=O)c1cc(F)c(-c2cnn(C)c2)nc1NCCc1cccc(F)c1` [N-{(2R)-3-[(5-fluoro-2-{[2-(3-fluorophenyl)ethyl]amino}-6-(1-methylpyrazol-4-yl)(3-pyridyl))carbonylamino]-2-methylpropyl}-2-[(tert-butoxy)carbonylamino]acetamide], 373 nM.
On to `N#Cc1ccccc1-c1ccc(C(=O)NCC2CCN(C(=O)CN)CC2)c(NCCc2cccc(F)c2)n1` [N-{[1-(2-aminoacetyl)(4-piperidyl)]methyl}(6-(2-cyanophenyl)-2-{[2-(3-fluorophenyl)ethyl]amino}(3-pyridyl))carboxamide], for which the IC50 amounted to 572 nM.
The figure for `N#Cc1cccc(CCNc2nc(-c3ccccc3)ccc2C(=O)NCc2cccnc2)c1` [(2-{[2-(3-cyanophenyl)ethyl]amino}-6-phenyl(3-pyridyl))-N-(3-pyridylmethyl)carboxamide] is 4650 nM; for `O=C(NCc1cccnc1)c1ccc(-c2c(F)cccc2Cl)nc1NCCc1cccc(F)c1` [(6-(2-chloro-6-fluorophenyl)-2-{[2-(3-fluorophenyl)ethyl]amino}(3-pyridyl))-N-(3-pyridylmethyl)carboxamide] it is 540 nM.
The figure for `COC(=O)[C@H](C)NC(=O)c1ccc(-c2ccccc2C#N)nc1NCCc1cccc(F)c1` [methyl (2S)-2-[(6-(2-cyanophenyl)-2-{[2-(3-fluorophenyl)ethyl]amino}(3-pyridyl))carbonylamino]propanoate] is 6980 nM; for `N#Cc1cc(F)ccc1-c1ccc(C(=O)NCc2cccnc2)c(NCCc2cccc(F)c2)n1` [(6-(2-cyano-4-fluorophenyl)-2-{[2-(3-fluorophenyl)ethyl]amino}(3-pyridyl))-N-(3-pyridylmethyl)carboxamide] it is 38 nM; for `N#Cc1ccccc1-c1ccc(C(=O)NCc2ccc(CN)cn2)c(NCCc2cccc(F)c2)n1` [N-{[5-(aminomethyl)(2-pyridyl)]methyl}(6-(2-cyanophenyl)-2-{[2-(3-fluorophenyl)ethyl]amino}(3-pyridyl))carboxamide] it is 515 nM.
The figure for `CC(C)(C)OC(=O)NCc1ccc(CNC(=O)c2ccc(-c3ccccc3C#N)nc2NCCc2cccc(F)c2)nc1` [N-[(5-{[(tert-butoxy)carbonylamino]methyl}(2-pyridyl))methyl](6-(2-cyanophenyl)-2-{[2-(3-fluorophenyl)ethyl]amino}(3-pyridyl))carboxamide] is 68600 nM; for `O=C(Nc1cccnc1)c1ccc(-c2ccccc2)nc1NCCc1ccccn1` [{6-phenyl-2-[(2-(2-pyridyl)ethyl)amino](3-pyridyl)}-N-(3-pyridyl)carboxamide] it is 5370 nM; for `N#Cc1ccccc1-c1ccc(C(=O)NCC2CCCN2CCN)c(NCCc2cccc(F)c2)n1` (centres unmarked) [N-{[1-(2-aminoethyl)pyrrolidin-2-yl]methyl}(6-(2-cyanophenyl)-2-{[2-(3-fluorophenyl)ethyl]amino}(3-pyridyl))carboxamide] it is 758 nM.
Turning to `O=C(NCc1cccnc1)c1ccc(-c2cccnc2)nc1NCCc1ccccn1` [N-(3-pyridylmethyl){6-(3-pyridyl)-2-[(2-(2-pyridyl)ethyl)amino](3-pyridyl)}carboxamide], the IC50 came to 19100 nM.
With `COC(=O)c1cc(Cl)c(-c2cnn(C)c2)nc1NCCc1cccc(F)c1` [methyl 5-chloro-2-{[2-(3-fluorophenyl)ethyl]amino}-6-(1-methylpyrazol-4-yl)pyridine-3-carboxylate], the IC50 worked out at 15500 nM.
As to `CC(C)(C)OC(=O)N1CCC[C@@H]1CNC(=O)c1ccc(-c2cn[nH]c2)nc1NCCc1cccc(F)c1` [tert-butyl (2R)-2-{[(2-{[2-(3-fluorophenyl)ethyl]amino}-6-pyrazol-4-yl(3-pyridyl))carbonylamino]methyl}pyrrolidinecarboxylate], the IC50 turned out to be 3170 nM.
To `N#Cc1ccccc1-c1ccc(C(=O)NC[C@@H]2CCCN2C(=O)CN)c(NCCc2cccc(F)c2)n1` [N-{[(2S)-1-(2-aminoacetyl)pyrrolidin-2-yl]methyl}(6-(2-cyanophenyl)-2-{[2-(3-fluorophenyl)ethyl]amino}(3-pyridyl))carboxamide] belongs 995 nM.
The figure for `CC(=O)N1CCC(CNC(=O)c2ccc(-c3ccccc3C#N)nc2NCCc2cccc(F)c2)CC1` [N-[(1-acetyl(4-piperidyl))methyl](6-(2-cyanophenyl)-2-{[2-(3-fluorophenyl)ethyl]amino}(3-pyridyl))carboxamide] is 1700 nM; for `Cn1cc(-c2nc(NCCc3cccc(F)c3)c(C(=O)NC[C@H]3CCN3C(=O)CN)cc2F)cn1` [N-{[(2R)-1-(2-aminoacetyl)azetidin-2-yl]methyl}(5-fluoro-2-{[2-(3-fluorophenyl)ethyl]amino}-6-(1-methylpyrazol-4-yl)(3-pyridyl))carboxamide] it is 50 nM; for `CC(=O)[C@H](C)CNC(=O)c1cc(F)c(-c2cnn(C)c2)nc1NCCc1cccc(F)c1` [N-((2R)-2-methyl-3-oxobutyl)(5-fluoro-2-{[2-(3-fluorophenyl)ethyl]amino}-6-(1-methylpyrazol-4-yl)(3-pyridyl))carboxamide] it is 109 nM.
To `N#Cc1ccccc1-c1ccc(C(=O)NCCN2C(=O)CC[C@H]2CN)c(NCCc2cccc(F)c2)n1` [N-{2-[(5S)-5-(aminomethyl)-2-oxopyrrolidinyl]ethyl}(6-(2-cyanophenyl)-2-{[2-(3-fluorophenyl)ethyl]amino}(3-pyridyl))carboxamide] belongs 17900 nM; to `Cc1cccc(-c2ccc(C(=O)NCc3cccnc3)c(NCCc3ccccn3)n2)c1` [{6-(3-methylphenyl)-2-[(2-(2-pyridyl)ethyl)amino](3-pyridyl)}-N-(3-pyridylmethyl)carboxamide], 6270 nM; to `N#Cc1ccccc1-c1ccc(C(=O)NCc2ccnn2CCN)c(NCCc2cccc(F)c2)n1` [N-{[1-(2-aminoethyl)pyrazol-5-yl]methyl}(6-(2-cyanophenyl)-2-{[2-(3-fluorophenyl)ethyl]amino}(3-pyridyl))carboxamide], 32 nM.
As to `C[C@H](N)C(=O)N1CCCC1CNC(=O)c1cc(F)c(-c2cc[nH]n2)nc1NCCc1cccc(F)c1` (stereo partly drawn) [N-{[(2R)-1-((2S)-2-aminopropanoyl)pyrrolidin-2-yl]methyl}(5-fluoro-2-{[2-(3-fluorophenyl)ethyl]amino}-6-pyrazol-3-yl(3-pyridyl))carboxamide], the IC50 is 314 nM.
To `O=C(NCc1cccnc1)c1ccc(-c2ccccc2)nc1NCCc1cc(F)ccc1F` [(2-{[2-(2,5-difluorophenyl)ethyl]amino}-6-phenyl(3-pyridyl))-N-(3-pyridylmethyl)carboxamide] belongs 79 nM.
On to `Cn1cc(-c2nc(NCCc3cccc(F)c3)c(C(=O)NC[C@H]3CCN3)cc2F)cn1` [N-[((2R)azetidin-2-yl)methyl](5-fluoro-2-{[2-(3-fluorophenyl)ethyl]amino}-6-(1-methylpyrazol-4-yl)(3-pyridyl))carboxamide], for which the IC50 stood at 1580 nM.
To `O=C(NCc1cccnc1)c1ccc(-c2ccccc2)nc1NCCc1ccc(F)cc1` [(2-{[2-(4-fluorophenyl)ethyl]amino}-6-phenyl(3-pyridyl))-N-(3-pyridylmethyl)carboxamide] belongs 1610 nM.

A word on the IC50: it is the point on the concentration scale where inhibition reaches its midpoint.
